Measurements published in publication PMC6247892, “Ficus sycomorus latex: An efficient alternative Egyptian source for horseradish peroxidase in labeling with antibodies for immunodiagnostic kits” (Veterinary World, 2018).
Where a name gives a salt, the structure may show the parent alone. Read-outs that look alike come from different tables or passages of the source.

Test system: POL (peroxidase of sycamore fig latex)
Experiment: spectrophotometric peroxidase assay, substrate variation
Type: biochemical, Ficus sycomorus
Settings: co-substrate H2O2, free enzyme, standard assay pH 5.5, room temperature (28-30°C)
Excerpt: spectrophotometric peroxidase assay, substrate variation on POL (peroxidase of sycamore fig latex)

## Nc1ccccc1N [o-phenylenediamine dihydrochloride]
read-out: Km (mM substrates) / OPD
  Km: 5.8 ± 0.4 mM

## CCn1c(=NN=c2sc3cc(S(=O)(=O)O)ccc3n2CC)sc2cc(S(=O)(=O)O)ccc21 [ABTS]
read-out: Km (mM substrates) / ABTS
  Km: 4.5 ± 0.5 mM

## Cc1cc(-c2cc(C)c(N)c(C)c2)cc(C)c1N [3,3`,5,5`tetramethylbenzidine]
read-out: Km (mM substrates) / TMB
  Km: 7 ± 0.8 mM

## Oc1ccc(Cl)c2ccccc12 [4-chloro-1-naphthol]
read-out: Km (mM substrates) / 4C-1N
  Km: 5 ± 0.6 mM
